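Values below derive from 48-hour exposures of cells grown in 96-well plates, with endpoints linearly interpolated between the two concentrations bracketing the appropriate inhibition level. At the TGI there is no net growth.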
Key:
Assay in all cases: growth of human tumour cells (NCI), 48 h
SN12C renal = test system: SN12C renal
786-0 renal = test system: 786-0 renal
EKVX NSCLC = test system: EKVX NSCLC
HOP-92 NSCLC = test system: HOP-92 NSCLC
SK-MEL-5 melanoma = test system: SK-MEL-5 melanoma
NCI-H23 lung = test system: NCI-H23 lung
DMS 114 small cell lung = test system: DMS 114 small cell lung
OVCAR-5 ovarian = test system: OVCAR-5 ovarian
SNB-78 CNS = test system: SNB-78 CNS
SF-539 CNS = test system: SF-539 CNS
UACC-62 melanoma = test system: UACC-62 melanoma

SMILES | TGI (SN12C renal) [µM] | TGI (786-0 renal) [µM] | TGI (EKVX NSCLC) [µM] | TGI (HOP-92 NSCLC) [µM] | TGI (SK-MEL-5 melanoma) [µM] | TGI (NCI-H23 lung) [µM] | TGI (DMS 114 small cell lung) [µM] | TGI (OVCAR-5 ovarian) [µM] | TGI (SNB-78 CNS) [µM] | TGI (SF-539 CNS) [µM] | TGI (UACC-62 melanoma) [µM]
COc1cc(CC(=O)c2cc3c(cc2-c2ccccc2)OCO3)cc(OC)c1OC | > 100 | > 100 | > 100 | 42 | 27.1 | > 100 | > 100 | > 100 | > 100 | > 100 | –
Nc1ccn(CCCC(c2ccccc2)P(=O)(O)O)c(=O)n1 (configuration not stated) | > 100 | > 100 | – | > 100 | > 100 | > 100 | > 100 | > 100 | > 100 | > 100 | > 100
O=C1C(=Cc2ccc([N+](=O)[O-])o2)C(=O)N(CCc2ccccc2)S(=O)(=O)N1CCc1ccccc1 | > 100 | 40.3 | > 100 | 33.5 | 44.1 | 31.9 | – | > 100 | 94.9 | > 100 | 31
O=C(CSc1nnc(-c2ccc(N=Cc3ccc(Cl)cc3)cc2)o1)Nc1cccc([N+](=O)[O-])c1 | > 100 | > 100 | > 100 | – | > 100 | > 100 | > 100 | – | > 100 | – | > 100
COc1ccc(N2C(=O)C3C=CC(n4[nH]c(=O)n(Cc5ccccc5)c4=O)CC3C2=O)cc1 (configuration not stated) | > 100 | > 100 | > 100 | > 100 | > 100 | > 100 | > 100 | > 100 | > 100 | > 100 | > 100
O=C1C(Cl)C(c2ccc([N+](=O)[O-])cc2)N1n1cnc2ccccc2c1=O (configuration not stated) | > 100 | > 100 | 85.6 | – | > 100 | > 100 | > 100 | > 100 | 88.1 | – | > 100
COc1ccc(C2NC3=C(CCCC3)N2)cc1 | > 100 | > 100 | – | > 100 | 67.5 | > 100 | > 100 | > 100 | > 100 | > 100 | –
NNC(=S)NN/C=C(\C=Nc1ccccc1)[N+](=O)[O-] | > 100 | > 100 | > 100 | > 100 | – | > 100 | > 100 | > 100 | – | > 100 | > 100
Cc1cc(=O)[nH]c(NNC(C#N)c2ccc(N(C)C)cc2)n1 (configuration not stated) | > 100 | > 100 | – | > 100 | > 100 | > 100 | > 100 | > 100 | > 100 | > 100 | > 100
COc1cc(CC2C(=O)OCC2[C@@H](OC(C)=O)c2ccc3c(c2)OCO3)c(Br)c(OC)c1OC (some centres not stated) | > 100 | > 100 | > 100 | 92.7 | > 100 | > 100 | > 100 | – | – | > 100 | > 100
O=C1NC2OC(CO)C(O)C(O)C2O1 (configuration not stated) | > 100 | > 100 | > 100 | > 100 | > 100 | > 100 | > 100 | > 100 | > 100 | > 100 | > 100
Brc1ccc(C[N+]23CN4CN(CN(C4)C2)C3)cc1 | 62.4 | > 100 | > 100 | – | – | > 100 | 51.1 | – | > 100 | > 100 | 30.5
CCOC(=O)C1=C(O)c2ccc(OC)cc2C(=O)C1=O | > 100 | > 100 | > 100 | > 100 | > 100 | > 100 | > 100 | > 100 | > 100 | > 100 | > 100
CC(=O)Nc1ccc(C(=O)n2[nH]c(C)c(/C=C3\C(=O)C=Cc4ccccc43)c2=O)cc1 | > 100 | > 100 | > 100 | – | > 100 | > 100 | > 100 | > 100 | > 100 | > 100 | –
CCOC(=O)C(NC(=O)c1ccccc1)(Nc1ccc(S(=O)(=O)Nc2ccc(OC)nn2)cc1)C(F)(F)F (configuration not stated) | > 100 | > 100 | > 100 | > 100 | > 100 | > 100 | – | > 100 | – | > 100 | > 100
O=[N+]([O-])c1ccc2c(N=Nc3ccc4ccccc4c3O)c(O)cc(S(=O)(=O)O)c2c1 | > 100 | > 81.1 | > 82.1 | > 100 | 53.6 | > 93.4 | – | > 100 | – | > 28.5 | 71.9

From PubChem BioAssay (NCI)
